Read-outs that look alike come from different tables or passages of the source. Where a SMILES comes first, the peptide text is derived from it. Bridges are numbered along the chain shown (N, C = ends). [ ]: non-standard residue; d: D form. hArg = N=C(N)NCCCC[C@H](N)C(=O)O; Mpa = O=C(O)CCS
Experiments:
[1] = test system: endothelial tube formation in co-cultures of ECFCs and ADSCs treated with VEGF; experiment: cells; assay type: cell-based, human; conditions: for IC50: read-out: VEGF_ADSC\ECFC Angio CD31 TubeArea summarized IC50
[2] = test system: ECFC/ADSC co-culture cell nuclei number; conditions: for IC50: read-out: VEGF_ADSC\ECFC Angio Hoechst NucArea summarized IC50
HeLa cells = experiment: cells; assay type: cell-based; conditions: for Hela CellCycMod PI S Phase IC50/EC50: assay number 15;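 as to Hela CellCycMod PI 4N summarized IC50: value tracks stimulation of 4N DNA content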

| SMILES | VEGF_ADSC\ECFC Angio CD31 TubeArea IC50/EC50 [1] [µM] | VEGF_ADSC\ECFC Angio Hoechst NucArea IC50/EC50 [2] [µM] | other results |
| --- | --- | --- | --- |
| O=C(O)CCCc1ccc(N(CCCl)CCCl)cc1 [NCGC00015199-20] |  |  | IC50/EC50, VEGF_ADSC\ECFC Angio CD31 TubeArea (assay number 2) [1]: 1.2446 µM; IC50/EC50, VEGF_ADSC\ECFC Angio Hoechst NucArea (assay number 3) [2]: > 10 µM; IC50/EC50, Hela CellCycMod PI 2N (assay number 14) (HeLa cells; 2N): > 10 µM; IC50/EC50, Hela CellCycMod PI 4N (assay number 16) (HeLa cells; 4N): > 10 µM; IC50/EC50, Hela CellCycMod PI Cell Number (assay number 18) (HeLa cells; Cell Number): > 10 µM; IC50/EC50, Hela CellCycMod PI MI (assay number 17) (HeLa cells; MI): > 10 µM; IC50/EC50, Hela CellCycMod PI S Phase (assay number 15) (HeLa cells; S Phase): 2.1921 µM |
| COc1ccc(Cc2nccc3cc(OC)c(OC)cc23)cc1OC [NCGC00015810-12] |  |  | IC50 [1]: 7.8 µM; IC50 [2]: > 10 µM; IC50 (HeLa cells; assay number 14, 2N, read-out: Hela CellCycMod PI 2N summarized IC50): > 10 µM; IC50 (HeLa cells; assay number 16, 4N, read-out: Hela CellCycMod PI 4N summarized IC50): > 10 µM; IC50 (HeLa cells; assay number 17, MI, read-out: Hela CellCycMod PI MI summarized IC50): > 10 µM; IC50 (HeLa cells; assay number 18, cell number, read-out: Hela CellCycMod PI Cell Number summarized IC50): > 10 µM |
| COc1ccc2cc3[n+](cc2c1OC)CCc1cc2c(cc1-3)OCO2 [NCGC00016526-07] | 2.6815 | > 10 | Hela CellCycMod PI 2N IC50/EC50 (HeLa cells; assay number 14, 2N): > 10 µM; Hela CellCycMod PI 4N IC50/EC50 (HeLa cells; assay number 16, 4N): > 10 µM; Hela CellCycMod PI MI IC50/EC50 (HeLa cells; assay number 17, MI): > 10 µM; Hela CellCycMod PI Cell Number IC50/EC50 (HeLa cells; assay number 18, cell number): > 10 µM |
| O=c1[nH]c(=O)n([C@H]2C[C@H](O)[C@@H](CO)O2)cc1Br [NCGC00090770-09] | 3.8464 | > 10 | Hela CellCycMod PI 2N IC50/EC50 (HeLa cells; assay number 14, 2N): > 10 µM; Hela CellCycMod PI S Phase IC50/EC50 (HeLa cells): > 10 µM; Hela CellCycMod PI 4N IC50/EC50 (HeLa cells; assay number 16, 4N): > 10 µM; Hela CellCycMod PI MI IC50/EC50 (HeLa cells; assay number 17, MI): > 10 µM; Hela CellCycMod PI Cell Number IC50/EC50 (HeLa cells; assay number 18, cell number): > 10 µM |
| CC(=O)Oc1ccccc1C(=O)Nc1ncc([N+](=O)[O-])s1 [NCGC00090774-05] | 2.0612 | > 10 | Hela CellCycMod PI 2N IC50/EC50 (HeLa cells; assay number 14, 2N): > 10 µM; Hela CellCycMod PI S Phase IC50/EC50 (HeLa cells): > 10 µM; Hela CellCycMod PI 4N IC50/EC50 (HeLa cells; assay number 16, 4N): > 10 µM; Hela CellCycMod PI MI IC50/EC50 (HeLa cells; assay number 17, MI): > 10 µM; Hela CellCycMod PI Cell Number IC50/EC50 (HeLa cells; assay number 18, cell number): > 10 µM |
| Cc1c(C)c2c(c(C)c1OC(=O)CCC(=O)O)CC[C@@](C)(CCC[C@H](C)CCC[C@H](C)CCCC(C)C)O2 [NCGC00167561-03] |  |  | IC50 [1]: > 10 µM; IC50 [2]: > 10 µM |
| O=C1OC(OC(=O)c2cccnc2Nc2cccc(C(F)(F)F)c2)c2ccccc21 (stereo not drawn) [NCGC00167754-02] | > 10 | > 10 |  |
| COc1ccccc1OCCNCC(O)COc1cccc2[nH]c3ccccc3c12 (stereo not drawn) [NCGC00167832-06] | > 10 | > 10 |  |
| CCCCN(CCCC)CCC(O)c1cc2c(Cl)cc(Cl)cc2c2cc(C(F)(F)F)ccc12 (stereo not drawn) [NCGC00179250-03] | > 10 | > 10 |  |
| CC(=O)C[C@H]1[C@H](O[C@H]2[C@H](OC(C)C(=O)N[C@@H](C)C(=O)N[C@H](CCC(=O)N[C@@H](CCCCN)C(=O)N[C@H](C)C(=O)O)C(N)=O)[C@@H](NC(=O)O)C(O)O[C@@H]2CO)O[C@H](CO)[C@@H](O)[C@@H]1O (stereo partly drawn) [NCGC00181761-01] | > 10 | > 10 |  |
| Cc1ccc(Nc2c(F)cccc2Cl)c(CC(=O)O)c1 [NCGC00181795-02] | > 10 | > 10 |  |
| CN(C)CCOC1=Cc2ccccc2Sc2ccc(Cl)cc21 [NCGC00182081-04] | > 10 | > 10 |  |
| COC(=O)N[C@H](C(=O)N[C@@H](Cc1ccccc1)[C@@H](O)CN(Cc1ccc(-c2ccccn2)cc1)NC(=O)[C@@H](NC(=O)OC)C(C)(C)C)C(C)(C)C [NCGC00182552-02] | > 10 | > 10 |  |
| O=C1CC[C@H](C(=O)N2CCCCC2)N1 [NCGC00182992-01] | > 10 | > 10 |  |
| CC(=O)c1ccc(OCC(=O)N2CCCCC2)cc1 [NCGC00183022-01] | > 10 | > 10 |  |
| CCOC(=O)NC(C)(C)Cc1ccc(Cl)cc1 [NCGC00183835-01] |  |  | IC50 [1]: > 10 µM; IC50 [2]: > 10 µM |
| O=C1NC2CCCCN2C12CCN(CCCN1c3ccccc3CCc3ccc(Cl)cc31)CC2 (stereo not drawn) [NCGC00183853-01] | > 10 | > 10 |  |
| CCCCc1oc2ccc(NS(C)(=O)=O)cc2c1C(=O)c1ccc(OCCCN(CCCC)CCCC)cc1 [NCGC00188863-02] | 2.754 | 7.561 |  |

| SMILES | VEGF_ADSC\ECFC Angio CD31 TubeArea IC50/EC50 [1] [µM] | VEGF_ADSC\ECFC Angio Hoechst NucArea IC50/EC50 [2] [µM] | other results |
| --- | --- | --- | --- |
| CCN[C@@H](C)Cc1cccc(C(F)(F)F)c1 [NCGC00247710-02] | > 10 | > 10 |  |
| Cc1[nH]cnc1C[C@H]1CCc2c(C)c3ccccc3n2C1=O [NCGC00249415-01] | > 10 | > 10 |  |
| CC(C(O)c1ccccc1)N(C)C/C=C/c1ccccc1 (stereo not drawn) [NCGC00249896-01] | > 10 | > 10 |  |
| Cc1ccc(C(=O)Oc2ccc(C(O)CNC(C)(C)C)cc2OC(=O)c2ccc(C)cc2)cc1 (stereo not drawn) [NCGC00253593-01] | > 10 | > 10 |  |
| Cc1onc(-c2c(Cl)cccc2Cl)c1C(=O)Cl [NCGC00253649-01] | > 10 | > 10 |  |
| COc1cc(S(N)(=O)=O)cc(C(=O)O)c1OC [NCGC00253657-01] | > 10 | > 10 |  |
| O=C(O)C1CCC1 [NCGC00253667-01] |  |  | IC50 [1]: > 10 µM; IC50 [2]: > 10 µM |
| COc1ccc([C@@H]2Sc3ccccc3NC(=O)[C@@H]2O)cc1 [NCGC00253672-01] | > 10 | > 10 |  |
| C/C=C(/C(=C/C)c1ccc(OC(C)=O)cc1)c1ccc(OC(C)=O)cc1 [NCGC00253696-01] |  |  | IC50 [1]: > 10 µM; IC50 [2]: > 10 µM |
| COc1ccccc1N1CCN(CC(O)COc2cc(OC)c(OC)c(OC)c2)CC1 (stereo not drawn) [NCGC00253761-01] | > 10 | > 10 |  |
| CC[C@]12CCCN3CCc4c(n(c5ccccc45)C(=O)C1)[C@@H]32 [NCGC00262533-02] | > 10 | > 10 |  |
| O=C1CC(c2ccc(Cl)cc2)CC(=O)N1 [NCGC00262922-01] |  |  | IC50/EC50, VEGF_ADSC\ECFC Angio CD31 TubeArea (assay number 2) [1]: > 10 µM; IC50/EC50, VEGF_ADSC\ECFC Angio Hoechst NucArea (assay number 3) [2]: > 10 µM |
| NC(=O)[C@@H]1CSSCCC(=O)N[C@@H](CCCCN=C(N)N)C(=O)NCC(=O)N[C@@H](CC(=O)O)C(=O)N[C@@H](Cc2c[nH]c3ccccc23)C(=O)N2CCC[C@H]2C(=O)N1 [NCGC00263524-01] ([Mpa][hArg]GDWPC-NH2; disulfide 1-7) | > 10 | > 10 |  |
| CCOC(=O)C1=C(C)NC(C)=C(C(=O)OCC)C1c1ccccc1/C=C/C(=O)OC(C)(C)C [NCGC00263529-01] |  |  | IC50/EC50, VEGF_ADSC\ECFC Angio CD31 TubeArea (assay number 2) [1]: > 10 µM; IC50/EC50, VEGF_ADSC\ECFC Angio Hoechst NucArea (assay number 3) [2]: > 10 µM |
| CCOC(=O)[C@H](CCc1ccccc1)N[C@@H](C)C(=O)N1Cc2cc(OC)c(OC)cc2C[C@H]1C(=O)O.Cl [NCGC00263546-01] | > 10 | > 10 |  |
| COc1cccc2c1C(=O)c1c(O)c3c(c(O)c1C2=O)C[C@@](O)(C(=O)CO)C[C@@H]3O[C@H]1C[C@H](N)[C@H](O)[C@H](C)O1.Cl [NCGC00263918-03] | 0.0429 | 0.114 |  |
| CC(=O)O[C@H]1C[C@H](O[C@H]2[C@@H](O)C[C@H](O[C@@H]3[C@@H](O)C[C@H](O[C@H]4CC[C@@]5(C)[C@H](CC[C@@H]6[C@H]5C[C@@H](O)[C@]5(C)[C@@H](C7=CC(=O)OC7)CC[C@]65O)C4)O[C@@H]3C)O[C@@H]2C)O[C@H](C)[C@H]1O[C@@H]1O[C@H](CO)[C@@H](O)[C@H](O)[C@@H]1O [NCGC00344547-01] | 0.0702 | 0.2792 |  |

Reference: publication PMC4503722, “Novel Phenotypic Outcomes Identified for a Public Collection of Approved Drugs from a Publicly Accessible Panel of Assays” (PLoS ONE, 2015)
